Measured values reported in patent US9963442B2, “Pyridones as herbicides” (E I DU PONT DE NEMOURS AND COMPANY, priority 2014, dated 2018).

Experiments:
[1] = system: blackgrass (Alopecurus myosuroides); assay: Test C postemergence; assay type: in vivo; conditions: scale 0 to 100, 0 is no effect, 100 is complete control
In short: (§1)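 Surfactant-containing, non-phytotoxic solvent formulation applied either to soil right after sowing (loam/sand) or over the top of emerged plants 2–18 cm tall. Effects were scored visually after 13–15 days, where 0 means no effect and 100 complete control.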

[2] = system: soybean (Glycine max); assay: Test C postemergence; assay type: in vivo; conditions: scale 0 to 100, 0 is no effect, 100 is complete control
In short: as §1

[3] = system: wild oat (Avena fatua); assay: Test C postemergence; assay type: in vivo; conditions: scale 0 to 100, 0 is no effect, 100 is complete control
In short: as §1

[4] = system: barnyardgrass (Echinochloa crus-galli); assay: Test C postemergence; assay type: in vivo; conditions: scale 0 to 100, 0 is no effect, 100 is complete control
In short: as §1

[5] = system: lambsquarters (Chenopodium album); assay: Test C postemergence; assay type: in vivo; conditions: scale 0 to 100, 0 is no effect, 100 is complete control
In short: as §1

[6] = system: winter wheat (Triticum aestivum); assay: Test C postemergence; assay type: in vivo; conditions: scale 0 to 100, 0 is no effect, 100 is complete control
In short: as §1

[7] = system: pigweed (Amaranthus retroflexus); assay: Test C postemergence; assay type: in vivo; conditions: scale 0 to 100, 0 is no effect, 100 is complete control
In short: as §1

[8] = system: giant foxtail (Setaria faberii); assay: Test C postemergence; assay type: in vivo; conditions: scale 0 to 100, 0 is no effect, 100 is complete control
In short: as §1

[9] = system: ragweed (common ragweed, Ambrosia elatior); assay: Test C postemergence; assay type: in vivo; conditions: scale 0 to 100, 0 is no effect, 100 is complete control
In short: as §1

[10] = system: johnsongrass (Sorghum halepense); assay: Test C postemergence; assay type: in vivo; conditions: scale 0 to 100, 0 is no effect, 100 is complete control
In short: as §1

[11] = system: yellow nutsedge (Cyperus esculentus); assay: Test C postemergence; assay type: in vivo; conditions: scale 0 to 100, 0 is no effect, 100 is complete control
In short: as §1

[12] = system: chickweed (common chickweed, Stellaria media); assay: Test C postemergence; assay type: in vivo; conditions: scale 0 to 100, 0 is no effect, 100 is complete control
In short: as §1

[13] = system: kochia (Kochia scoparia); assay: Test C postemergence; assay type: in vivo; conditions: scale 0 to 100, 0 is no effect, 100 is complete control
In short: as §1

[14] = system: oilseed rape (Brassica napus); assay: Test C postemergence; assay type: in vivo; conditions: scale 0 to 100, 0 is no effect, 100 is complete control
In short: as §1

[15] = system: morningglory (Ipomoea coccinea); assay: Test C postemergence; assay type: in vivo; conditions: scale 0 to 100, 0 is no effect, 100 is complete control
In short: as §1

In the case of `O=c1cccc(Oc2ncc(Cl)cn2)n1-c1ccc(Cl)cc1` [Compound 1, 1-(4-chlorophenyl)-6-[(5-chloro-2-pyrimidinyl)oxy]-2(1H)-pyridinone], the “Plant response rating, Blackgrass” value ([1]; 16 g ai/ha) is reported as 5, the “Plant response rating, Blackgrass” value ([1]; 31 g ai/ha) is reported as 5 and the “Plant response rating, Blackgrass” value ([1]; 62 g ai/ha) is reported as 5. For the same compound, the “Plant response rating, Blackgrass” value ([1]; 125 g ai/ha) was 5, the “Plant response rating, Soybean” value ([2]; 16 g ai/ha) was 15 and the “Plant response rating, Soybean” value ([2]; 31 g ai/ha) was 35. For the same compound, the “Plant response rating, Soybean” value ([2]; 62 g ai/ha) was 30, the “Plant response rating, Soybean” value ([2]; 125 g ai/ha) was 70 and the “Plant response rating, Oat, Wild” value ([3]; 16 g ai/ha) was 5. For the same compound, the “Plant response rating, Oat, Wild” value ([3]; 31 g ai/ha) was 5, the “Plant response rating, Oat, Wild” value ([3]; 62 g ai/ha) was 5 and the “Plant response rating, Oat, Wild” value ([3]; 125 g ai/ha) was 10. The “Plant response rating, Barnyardgrass” value ([4]; 16 g ai/ha) was 5, the “Plant response rating, Barnyardgrass” value ([4]; 31 g ai/ha) was 5 and the “Plant response rating, Barnyardgrass” value ([4]; 62 g ai/ha) was 10. The “Plant response rating, Barnyardgrass” value ([4]; 125 g ai/ha) was 10, the “Plant response rating, Lambsquarters” value ([5]; 16 g ai/ha) was 15 and the “Plant response rating, Lambsquarters” value ([5]; 31 g ai/ha) was 15. The “Plant response rating, Lambsquarters” value ([5]; 62 g ai/ha) was 45, the “Plant response rating, Lambsquarters” value ([5]; 125 g ai/ha) was 55 and the “Plant response rating, Wheat” value ([6]; 16 g ai/ha) was 0. For the same compound, the “Plant response rating, Wheat” value ([6]; 31 g ai/ha) was 5, the “Plant response rating, Wheat” value ([6]; 62 g ai/ha) was 5 and the “Plant response rating, Wheat” value ([6]; 125 g ai/ha) was 10. For the same compound, the “Plant response rating, Pigweed” value ([7]; 16 g ai/ha) was 35, the “Plant response rating, Pigweed” value ([7]; 31 g ai/ha) was 95 and the “Plant response rating, Pigweed” value ([7]; 62 g ai/ha) was 60. The “Plant response rating, Pigweed” value ([7]; 125 g ai/ha) was 80, the “Plant response rating, Foxtail, Giant” value ([8]; 16 g ai/ha) was 5 and the “Plant response rating, Foxtail, Giant” value ([8]; 31 g ai/ha) was 10. For the same compound, the “Plant response rating, Foxtail, Giant” value ([8]; 62 g ai/ha) was 10, the “Plant response rating, Foxtail, Giant” value ([8]; 125 g ai/ha) was 10 and the “Plant response rating, Ragweed” value ([9]; 16 g ai/ha) was 10. The “Plant response rating, Ragweed” value ([9]; 31 g ai/ha) was 70, the “Plant response rating, Ragweed” value ([9]; 62 g ai/ha) was 35 and the “Plant response rating, Ragweed” value ([9]; 125 g ai/ha) was 40. The “Plant response rating, Johnsongrass” value ([10]; 16 g ai/ha) was 0, the “Plant response rating, Johnsongrass” value ([10]; 31 g ai/ha) was 5 and the “Plant response rating, Johnsongrass” value ([10]; 62 g ai/ha) was 5. For the same compound, the “Plant response rating, Johnsongrass” value ([10]; 125 g ai/ha) was 5, the “Plant response rating, Nutsedge, Yellow” value ([11]; 16 g ai/ha) was 5 and the “Plant response rating, Nutsedge, Yellow” value ([11]; 31 g ai/ha) was 5. The “Plant response rating, Nutsedge, Yellow” value ([11]; 62 g ai/ha) was 5, the “Plant response rating, Nutsedge, Yellow” value ([11]; 125 g ai/ha) was 10 and the “Plant response rating, Chickweed” value ([12]; 16 g ai/ha) was 10. For the same compound, the “Plant response rating, Chickweed” value ([12]; 31 g ai/ha) was 10, the “Plant response rating, Chickweed” value ([12]; 62 g ai/ha) was 50 and the “Plant response rating, Chickweed” value ([12]; 125 g ai/ha) was 65. The “Plant response rating, Kochia” value ([13]; 16 g ai/ha) was 90, the “Plant response rating, Kochia” value ([13]; 31 g ai/ha) was 90 and the “Plant response rating, Kochia” value ([13]; 62 g ai/ha) was 95. For the same compound, the “Plant response rating, Kochia” value ([13]; 125 g ai/ha) was 95, the “Plant response rating, Oilseed Rape” value ([14]; 16 g ai/ha) was 10 and the “Plant response rating, Oilseed Rape” value ([14]; 31 g ai/ha) was 30. The “Plant response rating, Oilseed Rape” value ([14]; 62 g ai/ha) was 70, the “Plant response rating, Oilseed Rape” value ([14]; 125 g ai/ha) was 80 and the “Plant response rating, Morningglory” value ([15]; 16 g ai/ha) was 10. The “Plant response rating, Morningglory” value ([15]; 31 g ai/ha) was 40, the “Plant response rating, Morningglory” value ([15]; 62 g ai/ha) was 40 and the “Plant response rating, Morningglory” value ([15]; 125 g ai/ha) was 60. It also gave a melting point of 72 to 74 °C.
